{"source": "patent US4782043A", "about": "“Renin inhibitors containing a C-terminal amide cycle” (Merck & Co., Inc., priority 1985, dated 1988)", "key": {"hog kidney renin": {"target": "hog kidney renin (Sus scrofa, UniProt A0A287APG1)", "sequence (A0A287APG1 67-407)": "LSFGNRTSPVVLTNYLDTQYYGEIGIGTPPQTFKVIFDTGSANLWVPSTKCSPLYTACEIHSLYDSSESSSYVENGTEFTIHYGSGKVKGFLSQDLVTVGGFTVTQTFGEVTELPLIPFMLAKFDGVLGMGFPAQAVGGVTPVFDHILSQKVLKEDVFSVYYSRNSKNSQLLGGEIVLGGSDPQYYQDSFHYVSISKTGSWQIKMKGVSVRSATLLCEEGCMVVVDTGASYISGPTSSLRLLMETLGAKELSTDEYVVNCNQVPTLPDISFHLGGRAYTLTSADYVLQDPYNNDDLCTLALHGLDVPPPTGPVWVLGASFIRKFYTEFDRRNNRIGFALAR", "assay": "Hog renin inhibition", "format": "biochemical", "details": "pH 7.3, concentration producing 50% inhibition of renin activity, read-out: I50", "protocol": "An assay was carried out in order to determine the inhibitory potency of the peptides of the present invention. The assay measured the inhibition of hog kidney renin, and was in accordance with the procedure described in Rich et al., J. Med. Chem. 23: 27, 1980, except that a pH of 7.3 was used. The results of the assay, illustrated in the table below, are expressed as I50 values, which refers to the concentration of peptide inhibitor necessary to produce 50% inhibition of renin activity. This I50 value is obtained typically by plotting data from four inhibitor concentrations. Pepstatin was used as an active control."}, "hog renin": {"system": "hog renin", "details": "nephrectomized rats after injection of hog renin (Gross et al. 1971); cited from earlier work"}, "human kidney renin": {"target": "T1, human kidney renin (Homo sapiens, UniProt P00797)", "T1 construct": "human kidney renin purified as described in Bangham; from tissue; host or cells: human kidney", "T1 sequence (P00797 67-406)": "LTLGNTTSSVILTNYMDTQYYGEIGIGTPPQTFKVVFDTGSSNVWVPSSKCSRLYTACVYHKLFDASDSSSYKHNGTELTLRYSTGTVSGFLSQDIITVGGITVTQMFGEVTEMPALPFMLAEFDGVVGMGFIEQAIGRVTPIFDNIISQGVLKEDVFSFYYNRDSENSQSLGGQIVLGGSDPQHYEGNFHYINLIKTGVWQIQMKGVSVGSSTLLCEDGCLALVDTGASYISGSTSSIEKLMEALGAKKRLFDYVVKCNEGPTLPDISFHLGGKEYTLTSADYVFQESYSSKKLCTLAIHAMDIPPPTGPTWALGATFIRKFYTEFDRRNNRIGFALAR", "assay": "Human renin inhibition", "format": "biochemical", "details": "purified human kidney renin; dissociation constant of enzyme-inhibitor complex", "protocol": "An assay was carried out in order to determine the inhibitory potency of the peptides of the present invention. The assay measured the inhibition of human kidney renin purified as described in Bangham, D. R., Robertson, I., Robinson, J. I. S., Robinson, C. J., and Tree, M., Clinical Science and Molecular Medicine, 48 (Supp. 2): 136s-159s (1975), and further purified by affinity chromatography on pepstatin-aminohexyl-Sepharase as describe in Poe, M., Wu., J. K., Florance, J. R., Radkey, J. A., Bennett, C. D., and Hoagsteen, K., J. Biol. Chem. (1982, in press). The assay was also in accordance with Poe et al. cited above. Results are expressed as KI values, which refer to the dissociation constant of the inhibited enzyme-inhibitor complex. This KI value was obtained as described above. Pepstatin was used as an active control."}}, "note": "Peptide text beside a SMILES is read from it.", "data": [{"compound": "CC(C)C[C@@H]1NC(=O)C[C@H](O)[C@H](CC(C)C)NC(=O)[C@@H](NC(=O)[C@H](Cc2ccccc2)NC(=O)[C@@H]2CCCN2C(=O)[C@H](Cc2c[nH]cn2)NC(=O)C(C)C)CCCNC(=O)CNC(=O)[C@H](Cc2ccccc2)NC1=O", "note": "(HELM PEPTIDE1{[CC(C)C(=O)[*:2]].H.P.F.[Orn].[CC(C)C[C@H](N[*:1])[C@@H](O)CC(=O)[*:2]].L.F.G}$PEPTIDE1,PEPTIDE1,5:R3-9:R2$$$V2.0)", "values": [{"measurement": "IC50", "setting": "hog kidney renin", "value": 2800, "unit": "nM"}]}, {"compound": "Pepstatin", "values": [{"measurement": "blood pressure in vivo", "setting": "hog renin", "value": "reduce blood pressure in vivo"}]}, {"compound": "CC(C)C[C@@H]1NC(=O)C[C@H](O)[C@H](CC(C)C)NC(=O)[C@@H](NC(=O)[C@H](Cc2ccccc2)NC(=O)[C@@H]2CCCN2C(=O)[C@H](Cc2c[nH]cn2)NC(=O)C(C)C)CCCNC(=O)[C@H](Cc2ccccc2)NC1=O", "note": "(HELM PEPTIDE1{[CC(C)C(=O)[*:2]].H.P.F.[Orn].[CC(C)C[C@H](N[*:1])[C@@H](O)CC(=O)[*:2]].L.F}$PEPTIDE1,PEPTIDE1,5:R3-8:R2$$$V2.0)", "values": [{"measurement": "IC50", "setting": "hog kidney renin", "value": 24000, "unit": "nM"}]}, {"compound": "CC(C)C[C@@H]1NC(=O)C[C@H](O)[C@H](CC(C)C)NC(=O)[C@@H](NC(=O)[C@H](Cc2ccccc2)NC(=O)[C@@H]2CCCN2C(=O)[C@H](Cc2c[nH]cn2)NC(=O)C(C)C)CCCCNC(=O)[C@H](Cc2ccccc2)NC1=O", "note": "[drawing 39] (HELM PEPTIDE1{[CC(C)C(=O)[*:2]].H.P.F.K.[CC(C)C[C@H](N[*:1])[C@@H](O)CC(=O)[*:2]].L.F}$PEPTIDE1,PEPTIDE1,5:R3-8:R2$$$V2.0)", "values": [{"measurement": "Ki", "setting": "human kidney renin", "value": 55, "unit": "nM"}]}, {"compound": "CC(C)C[C@@H]1NC(=O)C[C@H](O)[C@H](Cc2ccccc2)NC(=O)[C@@H](NC(=O)C(CCCc2ccccc2)Cc2ccccc2)CCCCNC(=O)[C@H](Cc2ccccc2)NC1=O", "note": "(single isomer, unassigned) [drawing 41]", "values": [{"measurement": "Ki", "setting": "human kidney renin", "value": 190, "unit": "nM"}]}, {"compound": "CC(C)C[C@@H]1NC(=O)C[C@H](O)[C@H](CC(C)C)NC(=O)[C@@H](NC(=O)[C@H](Cc2ccccc2)NC(=O)[C@@H]2CCCN2C(=O)[C@H](Cc2c[nH]cn2)NC(=O)C(C)C)CCNC(=O)CNC(=O)[C@H](Cc2ccccc2)NC1=O", "note": "(HELM PEPTIDE1{[CC(C)C(=O)[*:2]].H.P.F.[Dab].[CC(C)C[C@H](N[*:1])[C@@H](O)CC(=O)[*:2]].L.F.G}$PEPTIDE1,PEPTIDE1,5:R3-9:R2$$$V2.0)", "values": [{"measurement": "IC50", "setting": "hog kidney renin", "value": 7100, "unit": "nM"}]}, {"compound": "CC(C)C[C@@H]1NC(=O)C[C@H](O)[C@H](Cc2ccccc2)NC(=O)[C@@H](NC(=O)C(CCCc2ccccc2)Cc2ccccc2)CCCCNC(=O)[C@H](Cc2ccccc2)NC1=O", "note": "(single isomer, unassigned) [drawing 38]", "values": [{"measurement": "IC50", "setting": "hog kidney renin", "value": 26, "unit": "nM"}]}, {"compound": "CC(C)C[C@@H]1NC(=O)C[C@H](O)[C@H](CC(C)C)NC(=O)[C@@H](NC(=O)[C@H](Cc2ccccc2)NC(=O)OC(C)(C)C)CCCCNC(=O)[C@H](Cc2ccccc2)NC1=O", "note": "[drawing 40] (HELM PEPTIDE1{[CC(C)(C)OC(=O)[*:2]].F.K.[CC(C)C[C@H](N[*:1])[C@@H](O)CC(=O)[*:2]].L.F}$PEPTIDE1,PEPTIDE1,3:R3-6:R2$$$V2.0)", "values": [{"measurement": "Ki", "setting": "human kidney renin", "value": 64, "unit": "nM"}]}, {"compound": "CC(C)C[C@@H]1NC(=O)C[C@H](O)[C@H](CC(C)C)NC(=O)[C@@H](NC(=O)[C@H](Cc2ccccc2)NC(=O)[C@@H]2CCCN2C(=O)[C@H](Cc2c[nH]cn2)NC(=O)C(C)C)CCCCNC(=O)CNC(=O)[C@H](Cc2ccccc2)NC1=O", "note": "(HELM PEPTIDE1{[CC(C)C(=O)[*:2]].H.P.F.K.[CC(C)C[C@H](N[*:1])[C@@H](O)CC(=O)[*:2]].L.F.G}$PEPTIDE1,PEPTIDE1,5:R3-9:R2$$$V2.0)", "values": [{"measurement": "IC50", "setting": "hog kidney renin", "value": 1700, "unit": "nM"}]}, {"compound": "CC(C)C[C@@H]1NC(=O)C[C@H](O)[C@H](CC(C)C)NC(=O)[C@@H](NC(=O)[C@H](Cc2ccccc2)NC(=O)OC(C)(C)C)CCCCNC(=O)[C@H](Cc2ccccc2)NC1=O", "note": "[drawing 37] (HELM PEPTIDE1{[CC(C)(C)OC(=O)[*:2]].F.K.[CC(C)C[C@H](N[*:1])[C@@H](O)CC(=O)[*:2]].L.F}$PEPTIDE1,PEPTIDE1,3:R3-6:R2$$$V2.0)", "values": [{"measurement": "IC50", "setting": "hog kidney renin", "value": 450, "unit": "nM"}]}, {"compound": "CC(C)C[C@@H]1NC(=O)C[C@H](O)[C@H](CC(C)C)NC(=O)[C@@H](NC(=O)[C@H](Cc2ccccc2)NC(=O)[C@@H]2CCCN2C(=O)[C@H](Cc2c[nH]cn2)NC(=O)C(C)C)CCCCNC(=O)[C@H](Cc2ccccc2)NC1=O", "note": "[drawing 31] (HELM PEPTIDE1{[CC(C)C(=O)[*:2]].H.P.F.K.[CC(C)C[C@H](N[*:1])[C@@H](O)CC(=O)[*:2]].L.F}$PEPTIDE1,PEPTIDE1,5:R3-8:R2$$$V2.0)", "values": [{"measurement": "IC50", "setting": "hog kidney renin", "value": 230, "unit": "nM"}]}]}
